{
  "source": "patent US11166949B2",
  "about": "“NURR1 activation in the treatment of metabolic disorders and as an exercise mimetic” (The Board of Regents of the University of Texas System, priority 2016, dated 2021)",
  "key": {"[1]": {"experiment": "Metabolic cages (energy expenditure)", "format": "in vivo", "conditions": "WT-HFD-AQ compared to WT mice, normalized to lean mass"}, "ob/ob mice [2]": {"system": "ob/ob mice", "experiment": "Liver TRIG accumulation in ob/ob mice", "format": "in vivo", "description": "(§1) Histology. WAT, BAT and liver were isolated and fixed in 4% paraformaldehyde (PFA) and processed for H&E staining. For oil red O staining, liver tissues were fixed in 4% PFA overnight, incubated in 12% sucrose for 12 hours then in 18% sucrose overnight before being cryoembedded and sectioned by the UT Southwestern Histology Core Facility. For skeletal muscle fiber analysis, tissues were frozen in liquid-nitrogen precooled isopentane, and 8 μm sections were used for H&E and fiber type staining. Plasma and tissue chemistry. Blood was collected using a 1 ml syringe coated in 0.5 M K2EDTA and serum collected by centrifugation for 20 min at 1000×g. Insulin and leptin levels were measured by ELISA. Serum triglycerides levels were measured using the Ortho Vitros 250 chemistry system. To measure triglyceride in the liver and skeletal muscle, tissue specimens were frozen immediately after isolation and pulverized in liquid nitrogen with a cell crusher. Serum and tissue triglyceride levels were measured by Mouse Metabolic Phenotyping Core Facility at University of Texas Southwestern Medical Center."}, "mice on HFD": {"system": "mice on HFD", "experiment": "Glucose tolerance test and insulin tolerance test", "format": "in vivo", "description": "Glucose uptake and insulin tolerance. Glucose tolerance test and insulin tolerance test were performed as previously described. For glucose tolerance test, mice were fasted for 6 hr and injected intraperitoneally with a glucose solution (0.15 g/ml, 158968 from Sigma-Aldrich, St. Louis, Mo.) at 1.5 g/kg body weight. Blood glucose concentrations were measured before and 15, 30, 60 and 90 min after glucose injection. For insulin tolerance test, mice […] for 6 hours were injected intraperitoneally with insulin (Human insulin 19278 from Sigma-Aldrich, St. Louis, Mo.) at 1.0 U/kg body weight. Blood glucose concentrations were measured before and 15, 30, 60 and 90 min after insulin injection."}, "[3]": {"system": "WT mice on normal chow and HFD", "experiment": "Nurr1 agonist treatment of WT mice on normal chow and HFD: weight gain, food intake, body composition, adipose histology", "format": "in vivo", "conditions": "for weight gain: WT mice on normal chow", "description": "Animals. Animals were housed in a pathogen free barrier facility with a 12 hour light/dark cycle and maintained on standard chow (2916 Teklad Global). The Nurr1 transcript was amplified from Invitrogen library with Nurr1-specific primers. Nurr1 was cloned into a plasmid containing the human skeletal muscle actin promoter and human GH (hGH) poly(A) signal. Nurr1 transgenic mice (referred as Nurr1-mTg) were backcrossed with C57/BL6J mice for more than four generations. C57BL/6J, ob/ob and db/db mice were obtained from Jackson Laboratories. Male mice were used in all experiments. For HFD (60% fat calories; D12492, Research Diet), mice were fed from the age of 5 weeks to the indicated times. Tissues were taken in the fed state except when otherwise mentioned. Drug treatments. […] Isoxazolo-pyridinone 7e (IP7e) was purchased from Millipore and dissolved in Tween 80 in a 10× stock solution. To obtain the final concentration (1×; 10 mg/kg) IP7e was dissolved in saline solution (0.9% NaCl). IP7e treatment by gavage was performed once a day. Control animals received the Tween 80 dissolved saline solution (0.9% NaCl, vehicle). Histology. WAT, BAT and liver were isolated and fixed in 4% paraformaldehyde (PFA) and processed for H&E staining. For oil red O staining, liver tissues were fixed in 4% PFA overnight, incubated in 12% sucrose for 12 hours then in 18% sucrose overnight before being cryoembedded and sectioned by the UT Southwestern Histology Core Facility. For skeletal muscle fiber analysis, tissues were frozen in liquid-nitrogen precooled isopentane, and 8 μm sections were used for H&E and fiber type staining. Metabolic chambers and whole-body composition analysis. Metabolic phenotyping of WT and Nurr1-mTg mice on HFD was performed using TSE metabolic chamber analysis by the Mouse Metabolic Phenotyping Core Facility at University of Texas Southwestern Medical Center. Thirteen week old mice on HFD were placed in TSE metabolic chambers for an initial 5 days acclimation period, followed by a 4.5 days experimental period with data collection. Whole-body composition parameters were measured by magnetic resonance imaging (MRI) using a Bruker Minispec mq10 system."}, "[4]": {"conditions": "mouse, in vivo"}, "[5]": {"experiment": "Serum insulin and triglyceride levels", "format": "in vivo", "conditions": "WT-HFD-AQ vs WT-HFD mice, after 10 weeks on HFD, postprandial", "description": "Plasma and tissue chemistry. Blood was collected using a 1 ml syringe coated in 0.5 M K2EDTA and serum collected by centrifugation for 20 min at 1000×g. Insulin and leptin levels were measured by ELISA. Serum triglycerides levels were measured using the Ortho Vitros 250 chemistry system. To measure triglyceride in the liver and skeletal muscle, tissue specimens were frozen immediately after isolation and pulverized in liquid nitrogen with a cell crusher. Serum and tissue triglyceride levels were measured by Mouse Metabolic Phenotyping Core Facility at University of Texas Southwestern Medical Center."}, "Nurr1": {"target": "Nurr1 (Homo sapiens, UniProt P43354)", "sequence (P43354 whole entry)": "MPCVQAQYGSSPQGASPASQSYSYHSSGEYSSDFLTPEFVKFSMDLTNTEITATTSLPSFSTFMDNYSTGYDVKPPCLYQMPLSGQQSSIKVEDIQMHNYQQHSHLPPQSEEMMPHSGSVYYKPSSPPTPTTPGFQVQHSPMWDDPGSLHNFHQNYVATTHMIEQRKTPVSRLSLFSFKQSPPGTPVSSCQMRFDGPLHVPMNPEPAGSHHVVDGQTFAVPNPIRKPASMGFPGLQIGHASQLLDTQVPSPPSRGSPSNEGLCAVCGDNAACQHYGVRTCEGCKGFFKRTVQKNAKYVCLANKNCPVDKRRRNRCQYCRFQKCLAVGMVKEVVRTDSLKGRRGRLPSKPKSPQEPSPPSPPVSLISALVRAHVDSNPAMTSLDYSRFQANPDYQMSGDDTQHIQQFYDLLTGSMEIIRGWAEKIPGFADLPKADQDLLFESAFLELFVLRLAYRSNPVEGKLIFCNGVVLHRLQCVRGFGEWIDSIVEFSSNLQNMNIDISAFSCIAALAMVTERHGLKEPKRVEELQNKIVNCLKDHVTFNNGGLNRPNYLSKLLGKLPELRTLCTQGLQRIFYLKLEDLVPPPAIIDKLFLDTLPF", "conditions": "cited from earlier work"}, "[6]": {"system": "chloroquine-resistant Plasmodium falciparum", "conditions": "chloroquine-resistant Plasmodium falciparum malaria infections; cited from earlier work"}, "WT mice on HFD": {"system": "WT mice on HFD", "experiment": "Liver TRIG accumulation / hepatic steatosis in response to HFD", "format": "in vivo", "conditions": "for hepatic steatosis: WT mice on HFD", "description": "as §1"}, "ob/ob mice [7]": {"system": "ob/ob mice", "experiment": "AQ treatment of leptin deficient (ob/ob) mice: body weight, food intake", "format": "in vivo", "description": "Animals. Animals were housed in a pathogen free barrier facility with a 12 hour light/dark cycle and maintained on standard chow (2916 Teklad Global). The Nurr1 transcript was amplified from Invitrogen library with Nurr1-specific primers. Nurr1 was cloned into a plasmid containing the human skeletal muscle actin promoter and human GH (hGH) poly(A) signal. Nurr1 transgenic mice (referred as Nurr1-mTg) were backcrossed with C57/BL6J mice for more than four generations. C57BL/6J, ob/ob and db/db mice were obtained from Jackson Laboratories. Male mice were used in all experiments. For HFD (60% fat calories; D12492, Research Diet), mice were fed from the age of 5 weeks to the indicated times. Tissues were taken in the fed state except when otherwise mentioned. Drug treatments. […] Isoxazolo-pyridinone 7e (IP7e) was purchased from Millipore and dissolved in Tween 80 in a 10× stock solution. To obtain the final concentration (1×; 10 mg/kg) IP7e was dissolved in saline solution (0.9% NaCl). IP7e treatment by gavage was performed once a day. Control animals received the Tween 80 dissolved saline solution (0.9% NaCl, vehicle)."}, "BV-2 microglia": {"system": "BV-2 microglia", "conditions": "cited from earlier work"}, "NF-κB": {"system": "NF-κB", "conditions": "NF-κB-GFP reporter cells; cited from earlier work"}, "[8]": {"system": "dopaminergic neurons in the substantia nigra pars compacta", "conditions": "MPTPp-treated mice, cited from earlier work"}, "[9]": {"conditions": "cited from earlier work"}, "[10]": {"conditions": "WT-HFD-AQ compared to WT-HFD mice"}, "[11]": {"conditions": "ob/ob mice on normal chow, AQ in drinking water, 4 weeks"}},
  "note": "Entries after “also recorded” stand apart in the source; their conditions may differ.",
  "data": [
    {"smiles": "CCN(CC)Cc1cc(Nc2ccnc3cc(Cl)ccc23)ccc1O", "note": "[AQ, amodiaquine]", "values": [
      {"measurement": "CO2 production", "setting": "[1]", "value": "significant increase"},
      {"measurement": "O2 consumption", "setting": "[1]", "value": "significant increase"},
      {"measurement": "decrease in Tg levels (liver)", "setting": "ob/ob mice [2]; ob/ob mice treated with AQ compared to non treated mice, 4 weeks", "value": 66, "unit": "%"},
      {"measurement": "liver TRIG accumulation / hepatic steatosis", "setting": "ob/ob mice [2]; ob/ob mice treated with AQ, histological and biochemical analysis", "value": "significant decrease; also recorded: recovers hepatic steatosis ob/ob mice to normal levels"},
      {"measurement": "glucose tolerance", "setting": "mice on HFD; AQ", "value": "dramatic improvement"},
      {"measurement": "insulin tolerance", "setting": "mice on HFD; AQ", "value": "dramatic improvement"},
      {"measurement": "obesity on HFD", "setting": "[3]; WT mice on HFD, AQ in drinking water ad libitum, 10 weeks", "value": "completely prevented obesity; also recorded: confers resistance to obesity"},
      {"measurement": "body weights", "setting": "[3]; WT mice on HFD, AQ in drinking water, 10 weeks", "value": "comparable to mice on normal chow"},
      {"measurement": "food consumption / food intake", "setting": "[3]; WT mice on HFD, AQ vs control mice on HFD", "value": "no difference; also recorded: does not affect"},
      {"measurement": "weight gain", "setting": "[3]; AQ in drinking water ad libitum, 10 weeks", "value": "no effect"},
      {"measurement": "adipocyte size in white adipose tissue", "setting": "[3]; [10]", "value": "decreases"},
      {"measurement": "fat mass", "setting": "[3]; [10]", "value": "significant decrease; also recorded: decreases"},
      {"measurement": "lean mass composition", "setting": "[3]; [10]", "value": "increase"},
      {"measurement": "toxic effects", "setting": "[4]", "value": "no toxic effects"},
      {"measurement": "serum insulin levels", "setting": "[5]", "value": "significantly lower"},
      {"measurement": "serum triglyceride levels", "setting": "[5]", "value": "significantly lower"},
      {"measurement": "Nurr1 activation levels", "setting": "Nurr1; among three compounds sharing a 4-amino-7-chloroquinoline scaffold", "value": "highest activation levels"},
      {"measurement": "efficacy compared with chloroquine", "setting": "[6]", "value": "more effective than chloroquine"},
      {"measurement": "hepatic steatosis", "setting": "WT mice on HFD; AQ", "value": "resistant to the hepatic steatosis; also recorded: prevents hepatic steatosis"},
      {"measurement": "decrease in hepatic TRIG levels", "setting": "WT mice on HFD; WT-HFD-AQ mice vs WT on HFD", "value": 50, "unit": "%"},
      {"measurement": "body weight", "setting": "ob/ob mice [7]; [11]", "value": "lose weight"},
      {"measurement": "weight gain", "setting": "ob/ob mice [7]; [11]", "value": "resistant to weight gain"},
      {"measurement": "food intake (chow consumed)", "setting": "ob/ob mice [7]; ob/ob mice, AQ 4 weeks", "value": "comparable quantities; also recorded: does not affect"}
    ]},
    {"smiles": "Clc1ccc(C(c2c[nH]c3ccccc23)c2c[nH]c3ccccc23)cc1", "note": "[C-DIM12, 1,1-bis(3′-indolyl)-1-(p-chlorophenyl) methane]", "values": [
      {"measurement": "LPS-induced expression of NF-κB-regulated genes (NOS2, IL-6, CCL2)", "setting": "BV-2 microglia", "value": "inhibited"},
      {"measurement": "NF-κB activation", "setting": "NF-κB", "value": "decreased"},
      {"measurement": "neuroprotective activity", "setting": "[8]; daily oral gavage", "value": "greatest neuroprotective activity"},
      {"measurement": "suppressing activation of microglia and astrocytes", "setting": "[8]", "value": "most potent compound"}
    ]},
    {"smiles": "COCCOCc1ccc(-c2cc3onc(-c4ccccc4)c3c(=O)n2C)cc1", "note": "[IP7e, Isoxazolo-pyridinone 7e]", "values": [
      {"measurement": "glucose handling (glucose tolerance)", "setting": "mice on HFD; IP7e", "value": "improvement"},
      {"measurement": "obesity on HFD", "setting": "[3]; WT mice on HFD, IP7e 10 mg/kg oral gavage once a day, 5 weeks", "value": "prevented obesity; also recorded: confers resistance to obesity"},
      {"measurement": "food consumption / food intake", "setting": "[3]; WT mice on HFD, IP7e vs control mice on HFD", "value": "no difference"},
      {"measurement": "food consumption / food intake", "setting": "[3]; WT mice on HFD, IP7e vs control mice on HFD, listed as IP7", "value": "does not affect"},
      {"measurement": "weight gain", "setting": "[3]; IP7e 10 mg/kg oral gavage once a day, 5 weeks", "value": "no impact"},
      {"measurement": "Nurr1-dependent transcriptional activity", "setting": "Nurr1", "value": "potent activator"},
      {"measurement": "hepatic steatosis", "setting": "WT mice on HFD; IP7e", "value": "resistant to the hepatic steatosis; also recorded: prevents hepatic steatosis"},
      {"measurement": "decrease in hepatic TRIG levels", "setting": "WT mice on HFD; WT-HFD-IP7e mice", "value": 48, "unit": "%"}
    ]},
    {"smiles": "CCN(CCO)CCCC(C)Nc1ccnc2cc(Cl)ccc12", "note": "(stereo not shown) [hydroxy-chloroquine]", "values": [
      {"measurement": "glucose level", "setting": "[9]; high doses, individuals with type 2 diabetes without autoimmune conditions, two clinical trials", "value": "lowers glucose level"},
      {"measurement": "risk of developing diabetes", "setting": "[9]; patients with autoimmune inflammatory arthritis, three clinical observational studies", "value": "lower risk"}
    ]}
  ]
}
